Data on eight compounds can be found in patent US20160002273A1, “THIENO[3,2-D]PYRIMIDINE-6-CARBOXAMIDES AND ANALOGUES AS SIRTUIN MODULATORS” (GLAXOSMITHKLINE LLC, priority 2013, published 2016).

≈ marks a conversion by molar mass, not a printed value. Where two headings read alike, the source gives them in different places.

The target of data set [1] is T1, SIRT1 (Homo sapiens, UniProt Q96EB6).
T1 sequence (Q96EB6 1-747): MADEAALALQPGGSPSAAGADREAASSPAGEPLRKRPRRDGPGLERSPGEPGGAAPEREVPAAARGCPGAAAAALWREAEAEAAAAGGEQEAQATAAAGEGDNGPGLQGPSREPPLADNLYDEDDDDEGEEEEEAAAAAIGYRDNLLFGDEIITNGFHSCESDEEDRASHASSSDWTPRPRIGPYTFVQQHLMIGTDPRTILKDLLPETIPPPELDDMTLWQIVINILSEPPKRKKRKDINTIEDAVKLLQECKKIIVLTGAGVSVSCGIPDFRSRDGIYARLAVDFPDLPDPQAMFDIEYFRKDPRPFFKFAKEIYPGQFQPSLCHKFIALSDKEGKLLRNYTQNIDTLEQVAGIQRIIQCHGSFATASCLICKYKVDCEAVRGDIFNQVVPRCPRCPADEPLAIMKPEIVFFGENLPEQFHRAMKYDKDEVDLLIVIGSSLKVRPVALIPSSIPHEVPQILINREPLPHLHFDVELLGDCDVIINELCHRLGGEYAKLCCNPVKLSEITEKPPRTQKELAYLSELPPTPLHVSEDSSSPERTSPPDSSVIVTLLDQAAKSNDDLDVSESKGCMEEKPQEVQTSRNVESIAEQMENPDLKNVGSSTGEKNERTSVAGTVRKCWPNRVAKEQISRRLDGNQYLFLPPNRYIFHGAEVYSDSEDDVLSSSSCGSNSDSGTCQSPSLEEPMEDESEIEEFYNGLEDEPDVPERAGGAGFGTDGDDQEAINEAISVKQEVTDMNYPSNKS
As to conditions: at 1 mM; Galli et al. (2012); cited from earlier work.

Data set [2] deals with T2, SIRT2 (Homo sapiens, UniProt Q8IXJ6).
T2 sequence (Q8IXJ6 1-389): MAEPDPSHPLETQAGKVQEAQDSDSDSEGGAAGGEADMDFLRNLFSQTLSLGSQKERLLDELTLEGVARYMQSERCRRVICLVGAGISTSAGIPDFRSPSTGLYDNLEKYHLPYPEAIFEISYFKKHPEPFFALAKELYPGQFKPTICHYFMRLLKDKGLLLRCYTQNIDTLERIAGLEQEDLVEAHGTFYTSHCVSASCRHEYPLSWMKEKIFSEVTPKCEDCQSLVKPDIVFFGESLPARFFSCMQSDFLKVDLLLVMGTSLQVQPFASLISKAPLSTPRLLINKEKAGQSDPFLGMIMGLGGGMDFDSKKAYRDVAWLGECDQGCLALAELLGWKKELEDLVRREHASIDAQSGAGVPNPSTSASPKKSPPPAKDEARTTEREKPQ
As to conditions: at 1 mM; Galli et al. (2012); cited from earlier work.

Data set [3] has as its system sirtuin mediated deacetylation of acetyl-p65. Nature of the data set: Acetyl-p65 assay in U2OS cells (AlphaScreen). As to conditions: FIG. 6. The class given is cell-based. As to the method:
In certain embodiments, U2OS cells were counted by hemocytometer and diluted to a concentration of 1.5×10^5 cell/ml. BacMam p65 and BacMam p300-HAT viruses were added to the diluted cells at 1% and 1% (vol/vol). 40 μl aliquots of the cell suspensions containing the viruses were plated onto a 384 well plate with a multi-drop dispenser. After 7 hours, a 2-fold serial dilution of Compounds 25, 28 and Compound 4, hereafter referred to as the test compounds, was carried out in DMSO. The test compounds were subsequently diluted with medium (20-fold) in an intermediate compound plate, and 4 μL of each test compound was transferred by a liquid handler from the intermediate plate to a cell plate. 24 hours post viral transduction, the medium in the cell plate was removed by inverting and flicking the plate, and blotting the plate with paper towels. 30 μl of lysis buffer (25 mM HEPES pH 7.4, 0.5% Triton X-100, 1 mg/ml Dextran 500, 0.1% BSA, 300 mM NaCl, 2 mM MgCl2, 1×protease inhibitor cocktail) was added to each well to lyse the cells. After incubation of the cells with lysis buffer for 30 minutes at room temp, 10 μl and 3 μl aliquots of the cell lysates were transferred to assay plates, and the assay plate containing 3 μl aliquot of cell lysates was diluted with an additional 7 μl of lysis buffer to obtain a final volume of 10 μl. Acetyl-p65 and total p65 protein in cell lysates were measured using the AlphaScreen assay format (PerkinElmer). The antibodies used to detect acetyl-p65 protein were biotinylated anti-HA antibody (Roche, 12158167001) and anti-acetylated K310-p65 antibody (Abcam, ab19870). The antibodies used to detect total p65 protein were biotinylated anti-HA antibody (Roche, 12158167001) and anti-p65 antibody (Santa Cruz, sc109). […] After incubating the plates for another 2 hrs in the dark, the plates were read by a PHERAstar microplate reader. […]
A general note: In Alpha technology, singlet oxygen from a donor bead excites a nearby acceptor bead.

Data set [4] is described as follows: Kinetic solubility by chemi-luminescent nitrogen detection (CLND). The class given is physicochemical. As to conditions: aqueous buffer, kinetic from dmso stock, DMSO stock incubated 1 hr in phosphate buffered saline pH 7.4, filtered.
For a further data set, the target named is T3, SIRT3 (Homo sapiens, UniProt Q9NTG7).
T3 sequence (Q9NTG7 102-399): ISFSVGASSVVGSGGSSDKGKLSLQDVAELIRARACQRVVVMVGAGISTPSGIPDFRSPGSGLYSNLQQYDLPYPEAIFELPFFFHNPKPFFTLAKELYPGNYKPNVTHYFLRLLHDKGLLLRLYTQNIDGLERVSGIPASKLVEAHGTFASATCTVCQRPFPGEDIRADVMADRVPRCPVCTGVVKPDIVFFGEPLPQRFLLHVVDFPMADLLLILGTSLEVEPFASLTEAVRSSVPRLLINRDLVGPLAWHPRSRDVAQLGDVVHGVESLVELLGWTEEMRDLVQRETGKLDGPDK
Description: SIRT3 deacetylation of Trp 5-mer peptide, OAADPr mass spec assay.

Data set [5] is described as follows: HPLC based lipophilicity assay (CHI LogD). It counts as physicochemical. As to conditions: CHI values by reverse phase HPLC transformed to a LogD scale.
Data set [6] deals with T1, SIRT1. Description: SIRT1 deacetylation of Trp 5-mer peptide, OAADPr mass spec assay.
Description: (§1) All assays were performed at room temperature in reaction buffer (50 mM HEPES, pH 7.5, 150 mM NaCl, 1 mM DTT, 0.05% BSA). […] To prepare the assays for analysis, 20 μL of reaction volume was mixed in 80 μL of 50:50 acetonitrile:methanol mixture. […] Peak data was integrated using RapidFire Integrator software (Agilent, Santa Clara, Calif.).
Data set [7] has as its target T2, SIRT2. Description: SIRT2 deacetylation of Trp 5-mer peptide, OAADPr mass spec assay. The class given is biochemical. Also noted: His-SIRT2(1-389).
A further data set has as its system SIRT1/2/3. Nature of the data set: SIRT1/2/3 biochemical assay, statements spanning all three enzymes. On the set-up: species or system human. As to conditions: for SIRT1/2/3 inhibitory activity, in words: across SIRT1, SIRT2 and SIRT3.
Where [8] appears, read: Trp SIRT3_IC50, Trp 5-mer peptide, class symbols.
Where [9] appears, read: IC50 (μM) SIRT1, Trp 5-mer peptide and NAD at KM, mean of at least three determinations.
[10] abbreviates: Trp SIRT1_IC50, Trp 5-mer peptide, class symbols.
[11] abbreviates: Trp 5-mer peptide and NAD at KM, mean of at least three determinations, read-out: IC50 (μM) SIRT2.
Where [12] appears, read: Trp 5-mer peptide, class symbols, read-out: Trp SIRT2_IC50.
Where [13] appears, read: IC50 (μM) SIRT3, Trp 5-mer peptide and NAD at KM, mean of at least three determinations.
Where [14] appears, read: read-out: IC50 (μM) SIRT3, Trp 5-mer peptide and NAD at KM, mean of at least three determinations.
[15] abbreviates: read-out: IC50 (μM) SIRT1, Trp 5-mer peptide and NAD at KM, mean of at least three determinations.
Setting [16] is: Trp SIRT2_IC50, Trp 5-mer peptide, class symbols.

As usually defined, the solubility is the concentration that dissolves in the medium under given conditions. A lower solubility goes with a poorly soluble substance. The term LogD denotes the decadic logarithm of the distribution of all forms, ionised or not, between an organic phase and buffer at a given pH. High values mean higher lipophilicity, low ones lower lipophilicity.

Description for SIRT3: as §1

On to `c1cncc(-c2c[nH]nn2)c1` [3-(1H-1,2,3-triazol-4-yl)pyridine], for which the SIRT1 activity remaining on SIRT1 [1] is 88%. Moreover, on SIRT2 [2], the SIRT2 activity remaining is reported as 92%.
On to `NC(=O)C1CCCc2c1[nH]c1ccc(Cl)cc21` (centres unmarked) [4, EX-527, EX-527, reference compound], for which the “inhibition of sirtuin mediated deacetylation of acetyl-p65” value in [3] is recorded as “inhibit”.
Turning to `CCNC(=O)c1cccc(C(=O)NCCC2CCN(c3ncnc4cc(C(N)=O)sc34)CC2)c1` [Compound 11a, N^1-(2-(1-(6-carbamoylthieno[3,2-d]pyrimidin-4-yl)piperidin-4-yl)ethyl)-N^3-ethylisophthalamide], the solubility at 1 hr in data set [4] is 19 µM (≈ 9.13 µg/mL). Further, the IC50 against SIRT3 (SIRT3 IC50, as stated in text) was 0.001 µM; at SIRT3 (setting [8]), < 1 µM; at SIRT1 [6] (setting [9]), 0.014 µM; against SIRT1 [6] (setting [10]) it was < 1 µM; at SIRT2 [7] (setting [11]), 0.005 µM; on SIRT2 [7] (setting [12]) it was < 1 µM. Also, the LogD in data set [5] amounted to 2.09.
As for `NC(=O)c1cc2ncnc(Cl)c2s1` [Compound 14, 4-chlorothieno[3,2-d]pyrimidine-6-carboxamide], the IC50 against SIRT3 (setting [13]) is > 50 µM; on SIRT3 (setting [8]), > 10 µM; against SIRT1 [6] (setting [9]), > 50 µM; at SIRT1 [6] (setting [10]), > 10 µM; on SIRT2 [7] (setting [11]), > 50 µM; at SIRT2 [7] (setting [12]), > 10 µM. Further, the “SIRT1/2/3 inhibitory activity, in words” value with SIRT1/2/3 was “not conserved”.
For the compound `NC(=O)c1cc2ncnc(N3CCCCC3)c2s1` [Compound 21, 4-(Piperidin-1-yl)thieno[3,2-d]pyrimidine-6-carboxamide], the IC50 is 1 to 10 µM at SIRT3 (setting [8]); 8.6 µM at SIRT3 (setting [14]); > 10 µM against SIRT1 [6] (setting [10]); 15 µM at SIRT1 [6] (setting [15]); 1.4 µM at SIRT2 [7] (setting [11]); 1 to 10 µM at SIRT2 [7] (setting [16]). In addition, in the data set with SIRT1/2/3, the “SIRT1/2/3 inhibitory activity, in words” value is reported as “micromolar levels”.
As for `CCNc1ncnc2cc(C(N)=O)sc12` [Compound 22, 4-(Ethylamino)thieno[3,2-d]pyrimidine-6-carboxamide], the IC50 was > 50 µM at SIRT3 (setting [13]); > 10 µM against SIRT3 (setting [8]); > 50 µM against SIRT1 [6] (setting [9]); > 10 µM against SIRT1 [6] (setting [10]); 49 µM on SIRT2 [7] (setting [11]); > 10 µM against SIRT2 [7] (setting [16]). In addition, the “SIRT1/2/3 inhibitory activity, in words” value in the data set on SIRT1/2/3 is listed as “not conserved”.
In the case of `CC(=S)NCCC1CCN(c2ncnc3cc(C(N)=O)sc23)CC1` [Compound 25, 4-(4-(2-ethanethioamidoethyl)piperidin-1-yl)thieno[3,2-d]pyrimidine-6-carboxamide], in data set [3], the “inhibition of sirtuin mediated deacetylation of acetyl-p65” value is given as “inhibit”. Besides, the IC50 on SIRT1 [6] (setting [10]) is < 1 µM; at SIRT1 [6] (setting [15]), 0.056 µM; at SIRT2 [7] (setting [11]), 0.03 µM; against SIRT2 [7] (setting [16]), < 1 µM.
On to `CC(C)(C)C(=O)NCCC1CCN(c2nccc3cc(C(N)=O)sc23)CC1` [Compound 38, 7-(4-(2-pivalamidoethyl)piperidin-1-yl)thieno[2,3-c]pyridine-2-carboxamide], for which the IC50 at SIRT3 (setting [8]) is 1 to 10 µM; on SIRT3 (setting [14]), 2.1 µM; against SIRT1 [6] (setting [10]) it was < 1 µM; on SIRT1 [6] (setting [15]), 0.49 µM; at SIRT2 [7] (setting [11]), 0.3 µM; at SIRT2 [7] (setting [12]) it was < 1 µM. In addition, the “fold reduction in SIRT1/2/3 potency” value with SIRT1/2/3 (compared to Compound 28, range across the three enzymes) is 30-63 fold.
